This note sets out measurements from patent publication EP4768487A1, “FUSED LACTAM RING COMPOUND AND USE THEREOF” (Chengdu Zenitar Biomedical Technology Co., Ltd., priority 2023, dated 2025).

Data set [1] deals with BRCA wild-type DLD-1 cells. Put plainly: Anti-proliferative activity against cells (CCK8): DLD-1. The format is cell-based. The note with it: Homo sapiens, 72 h + 96 h culture. In short, it runs like this:
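DLD-1 cells (1000/well) in RPMI-1640 with 10% FBS, treated 24 h after plating with PARPi at 0, 1 or 10 µM final. Cultured 72 h, medium exchanged with re-added PARPi, then a further 96 h; read-out by CCK8.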

Data set [2] concerns the target T1, hERG potassium ion channel (Homo sapiens, UniProt Q12809).
T1 construct: expressed in transfected cells; host or cells: CHO cells
Put plainly: Inhibition of hERG potassium ion channel (Qpatch, CHO cells stably expressing hERG). The note with it: for inhibitory effects on the hERG potassium ion channel (in words): conclusion of Table 17; for inhibition at 2.5 min, 20 µM: human, CHO cells stably expressing hERG, read-out: Inhibition rate at 20 µM. The format is cell-based. On the procedure:
Cell culture and treatment: CHO cells stably expressing hERG were cultured in a cell culture flask and incubated in an incubator with 5% CO2 at 37 °C. When the cell density reached 60%-80%, the cell culture medium was removed by pipetting. The cells were washed once with PBS, and then Detachin was added for detachment. After complete detachment, a culture medium was added for neutralization. The cells were then centrifuged, and the supernatant was removed by pipetting. A culture medium was further added for resuspension, and the cell density was adjusted to (2-5) × 10^6 cells/mL for later use.
Compound preparation: The compound stock solution was diluted with 100% DMSO. Specifically, 10 µL of the compound stock solution was added to 20 µL of DMSO, followed by a 3-fold serial dilution to obtain 6 concentrations. 4 µL of each of the 6 compound solutions at different concentrations was taken and added to 396 µL of an extracellular fluid, resulting in a 100-fold dilution to obtain 6 intermediate concentrations. Then, 80 µL of each of the 6 intermediate-concentration compound solutions was taken and added to 320 µL of an extracellular fluid, resulting in a 5-fold dilution to achieve the final test concentrations. The highest test concentration was 40 µM. […] DMSO at this concentration has no effect on the hERG potassium channel. During the compound preparation, the entire dilution process was completed by a Bravo instrument.
Electrophysiological recording process: The single-cell high-impedance sealing and whole-cell mode formation processes were all completed automatically by a Qpatch instrument. After achieving the whole-cell recording mode, the cells were clamped at -80 mV. Before a 5-second +40 mV depolarizing stimulus was applied, a 50-millisecond -50 mV prepulse voltage was first applied. The potential was then repolarized to -50 mV and held for 5 s, and finally returned to -80 mV. This voltage stimulation was applied every 15 s. After 2 min of recording, the extracellular fluid was administered, followed by recording for 5 min. Then, the compound administration process began, starting from the lowest test compound concentration. Each test concentration was applied for 2.5 min. After all the concentrations were applied consecutively, the positive control compound, 3 µM Cisapride, was administered. At least 3 cells (n ≥ 3) were tested for each concentration.
Data processing: Data analysis and processing were performed using GraphPad Prism 5.0 and Excel software. The IC50 of the compound was calculated using GraphPad Prism 5 software by equation fitting as follows: Y = Bottom + (Top−Bottom)/(1+10^(∧)((LogIC50−X)*HillSLope)) [formula] where X is the Log value of the test concentration of the test sample, Y is the inhibition percentage at the corresponding concentration, and Bottom and Top are the minimum and maximum inhibition percentages, respectively. Table 17. Results of inhibition of hERG potassium ion channel by compounds
For orientation: hERG is a cardiac potassium channel; its block is linked to QT prolongation.

Data set [3] in a line: Pharmacokinetic evaluation in Balb/c mice. The format is in vivo. The note with it: 1mg/kg, PO; for AUC(0-t) / Cmax / half-life: male, mouse, plasma. On the procedure: Experimental objective: To understand the pharmacokinetic profiles of the compounds. Experimental basis: Technical guidelines for non-clinical pharmacokinetic studies of chemical drugs, 2014.
Experimental scheme: The pharmacokinetic profiles of the compounds were investigated by intravenous administration (1 mg·kg^-1) and intragastric administration (1 mg·kg^-1) in Balb/c mice.
Sample preparation: About 0.2 mg of the compound was weighed out and dissolved in 10 µL of DMSO, and then a sodium chloride solution for injection was added to prepare a 0.1 mg·mL^-1 compound solution for later administration.
Three of the mice were subjected to intravenous administration (IV) at 1 mg·kg^-1, while the other three were subjected to intragastric administration (PO) at 1 mg·kg^-1. About 0.05 mL of blood was collected at 5 min, 15 min, 30 min, 1 h, 2 h, 4 h, 6 h, 8 h, 10 h, 24 h, and 48 h after administration. The collected blood was centrifuged at 3500 rpm for 15 min. The supernatant plasma was then collected and cryopreserved at -40 °C for later analysis. The plasma concentration was quantitatively analyzed using the LC-MS/MS method, and pharmacokinetic parameters such as […] (Cmax), area under plasma concentration-time curve (AUC(0-t)), half-life (T1/2), clearance rate (CL), tissue distribution (Vdss), and bioavailability (F) were calculated. Table 18. Results of pharmacokinetic test of compounds in Balb/c mice

For data set [4], the system named is CD34+ hematopoietic stem and progenitor cells (hmPB34-P-SC). Put plainly: Hematological toxicity assay (CellTiter-Glo 2.0). The format is cell-based. The note with it: 120 h; 5 days of culture. On the procedure: The next day, the cells were resuspended and seeded in a 96-well plate at a concentration of 1000 cells/well, and meanwhile, different concentrations of the drug were added for treatment, with 3 replicate wells set for each concentration. After 5 days of culture, the number of viable cells in each well was determined using a CellTiter-Glo 2.0 kit, followed by detection by a microplate reader.
On the technique in general: In ATP-based viability assays light output follows the ATP content of the culture.

pIC50: −log10 of the molar value. Some results are limits rather than exact numbers.

T1 sequence (Q12809 whole entry): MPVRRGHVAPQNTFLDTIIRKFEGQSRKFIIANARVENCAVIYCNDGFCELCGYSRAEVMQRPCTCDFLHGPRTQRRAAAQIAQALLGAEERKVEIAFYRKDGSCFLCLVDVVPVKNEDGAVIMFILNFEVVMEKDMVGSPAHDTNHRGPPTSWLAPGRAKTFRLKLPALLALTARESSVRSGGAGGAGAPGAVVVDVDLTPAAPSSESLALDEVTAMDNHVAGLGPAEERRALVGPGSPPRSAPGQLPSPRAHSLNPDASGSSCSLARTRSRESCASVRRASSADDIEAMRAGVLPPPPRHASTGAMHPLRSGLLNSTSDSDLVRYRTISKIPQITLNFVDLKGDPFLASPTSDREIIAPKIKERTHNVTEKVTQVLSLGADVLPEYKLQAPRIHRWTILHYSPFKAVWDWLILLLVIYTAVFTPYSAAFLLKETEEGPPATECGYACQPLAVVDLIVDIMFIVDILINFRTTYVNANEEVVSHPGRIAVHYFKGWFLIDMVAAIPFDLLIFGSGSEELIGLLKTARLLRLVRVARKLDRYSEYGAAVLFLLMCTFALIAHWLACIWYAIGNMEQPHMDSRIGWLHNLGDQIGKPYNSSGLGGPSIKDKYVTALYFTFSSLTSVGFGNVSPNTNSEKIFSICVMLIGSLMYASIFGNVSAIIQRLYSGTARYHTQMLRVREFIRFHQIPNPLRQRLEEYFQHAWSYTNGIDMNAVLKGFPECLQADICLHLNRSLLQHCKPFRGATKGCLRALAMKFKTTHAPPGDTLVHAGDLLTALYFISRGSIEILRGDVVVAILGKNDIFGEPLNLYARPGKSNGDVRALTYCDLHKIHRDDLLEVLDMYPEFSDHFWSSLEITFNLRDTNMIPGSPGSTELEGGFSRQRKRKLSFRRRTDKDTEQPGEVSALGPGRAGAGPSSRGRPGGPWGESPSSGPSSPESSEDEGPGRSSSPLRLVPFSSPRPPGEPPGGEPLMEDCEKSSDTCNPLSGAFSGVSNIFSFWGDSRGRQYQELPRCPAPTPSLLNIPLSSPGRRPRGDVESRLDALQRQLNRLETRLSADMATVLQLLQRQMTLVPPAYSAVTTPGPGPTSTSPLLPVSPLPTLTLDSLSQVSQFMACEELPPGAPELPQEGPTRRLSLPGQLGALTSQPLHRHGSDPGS

Turning to `CNC(=O)c1ccc(N2CCN(C[C@H]3CCc4nc(C)c(=O)[nH]c4C3)CC2)c(F)n1` [Example 45, (S)-6-Fluoro-N-methyl-5-(4-((2-methyl-3-oxo-3,4,5,6,7,8-hexahydroquinoxaline-6-yl)methyl)piperazin-1-yl)picolinamide], the pIC50 (in general, the IC50 on a negative log10 scale, so that one unit is a factor of ten) in data set [1] is below 6.00. Also, in data set [2], the “inhibitory effects on the hERG potassium ion channel (in words)” value (shortened to “inhibitory effects”) is listed as “Conclusion: Compounds 2, 6, 45, 62, 67, 74, 83, 87, etc., of the present disclosure exhibited relatively weak inhibitory effects on the hERG potassium ion channel” and the inhibition (commonly the drop in the measured response relative to a control, in per cent) at 2.5 min, 20 µM stood at 13%. Further, in data set [3], the CL was 9.83 mL/min/kg; the Vdss turned out to be 6.85 L/kg; the AUC(0-t) (usually exposure summed from dosing to a finite time, without extrapolation to infinity) was 1540 ng·h/mL; the Cmax (as a rule, the peak of the concentration-time curve) stood at 359 ng/mL. Moreover, the half-life (usually the time needed for the level to fall by half in the phase considered) in data set [3] was 7.98 h. For the same molecule, the pIC50 in data set [4] is 6.48.
As for `CNC(=O)c1ccc(N2CCN(CC3Cc4[nH]c(=O)c(C)cc4CO3)CC2)c(Cl)n1` (centres unmarked) [Example 74, 6-Chloro-N-methyl-5-(4-((3-methyl-2-oxo-1,5,7,8-tetrahydro-2H-pyrano[4,3-b]pyridin-7-yl)methyl)piperazin-1-yl)picolinamide], the pIC50 in data set [1] was below 6.00. In data set [2], the “inhibitory effects” value is listed as “Conclusion: Compounds 2, 6, 45, 62, 67, 74, 83, 87, etc., of the present disclosure exhibited relatively weak inhibitory effects on the hERG potassium ion channel” and the inhibition at 2.5 min, 20 µM was 17.7%. In data set [3], the Vdss is given as 1.06 L/kg, the AUC(0-t) was 17100 ng·h/mL, the Cmax was found to be 2350 ng/mL and the half-life is 2.52 h. In addition, the pIC50 in data set [4] was below 6.00.
Consider `CCc1cc2c([nH]c1=O)CC(CN1CCN(c3ccc(C(=O)NC)nc3F)CC1)OC2` (centres unmarked) [Compound 2, 5-(4-((3-Ethyl-2-oxo-1,5,7,8-tetrahydro-2H-pyrano[4,3-b]pyridin-7-yl)methyl)piperazin-1-yl)-6-fluoro-N-methyl picolinamide], for which the pIC50 in data set [1] was below 6.00. In data set [2], the “inhibitory effects” value is on record as “Conclusion: Compounds 2, 6, 45, 62, 67, 74, 83, 87, etc., of the present disclosure exhibited relatively weak inhibitory effects on the hERG potassium ion channel” and the inhibition at 2.5 min, 20 µM came to 6.7%. In data set [3], the CL stood at 3.17 mL/min/kg, the Vdss was 0.38 L/kg, the AUC(0-t) stood at 5400 ng·h/mL and the Cmax is 2350 ng/mL. This molecule also gave a half-life in data set [3] of 1.36 h. The same molecule had a pIC50 in data set [4] of 6.13.
